From ChEMBL document CHEMBL3526017, “Predicting the drug interaction potential of AMG 853, a dual antagonist of the D-prostanoid and chemoattractant receptor-homologous molecule expressed on T helper 2 cells receptors” (Drug Metab Dispos, 2012)

How the values were obtained:
Cytochrome P450 2C8 [1] = target: T1, Cytochrome P450 2C8 (Homo sapiens, UniProt P10632); assay: Linear mixed inhibition of CYP2C8 in human liver microsomes assessed as rosiglitazone demethylation after 20 mins by LC-MS/MS analysis; format: ADME
T1 sequence (P10632 whole entry): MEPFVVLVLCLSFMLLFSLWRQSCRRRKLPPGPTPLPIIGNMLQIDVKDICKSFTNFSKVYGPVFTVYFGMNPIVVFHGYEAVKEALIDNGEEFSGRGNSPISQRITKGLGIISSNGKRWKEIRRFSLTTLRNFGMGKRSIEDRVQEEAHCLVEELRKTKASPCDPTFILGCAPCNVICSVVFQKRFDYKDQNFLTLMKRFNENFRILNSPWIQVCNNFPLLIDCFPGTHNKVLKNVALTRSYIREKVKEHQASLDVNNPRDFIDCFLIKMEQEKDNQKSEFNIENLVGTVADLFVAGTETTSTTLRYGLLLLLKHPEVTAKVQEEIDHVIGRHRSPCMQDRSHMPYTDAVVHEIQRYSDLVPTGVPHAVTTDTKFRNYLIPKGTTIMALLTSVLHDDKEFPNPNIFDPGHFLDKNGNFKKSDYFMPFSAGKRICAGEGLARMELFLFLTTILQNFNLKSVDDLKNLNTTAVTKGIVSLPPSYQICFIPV

[2] = target: UDP-glucuronosyltransferase 1A4 (Homo sapiens, UniProt P22310); assay: Drug metabolism assessed as human recombinant UGT1A4-mediated compound formation treated with AMG 853 at 10 uM after 30 mins by LC-MS/MS analysis; format: ADME; conditions: recombinant enzyme, 0.5 h
Sequence of UDP-glucuronosyltransferase 1A4 (P22310 whole entry): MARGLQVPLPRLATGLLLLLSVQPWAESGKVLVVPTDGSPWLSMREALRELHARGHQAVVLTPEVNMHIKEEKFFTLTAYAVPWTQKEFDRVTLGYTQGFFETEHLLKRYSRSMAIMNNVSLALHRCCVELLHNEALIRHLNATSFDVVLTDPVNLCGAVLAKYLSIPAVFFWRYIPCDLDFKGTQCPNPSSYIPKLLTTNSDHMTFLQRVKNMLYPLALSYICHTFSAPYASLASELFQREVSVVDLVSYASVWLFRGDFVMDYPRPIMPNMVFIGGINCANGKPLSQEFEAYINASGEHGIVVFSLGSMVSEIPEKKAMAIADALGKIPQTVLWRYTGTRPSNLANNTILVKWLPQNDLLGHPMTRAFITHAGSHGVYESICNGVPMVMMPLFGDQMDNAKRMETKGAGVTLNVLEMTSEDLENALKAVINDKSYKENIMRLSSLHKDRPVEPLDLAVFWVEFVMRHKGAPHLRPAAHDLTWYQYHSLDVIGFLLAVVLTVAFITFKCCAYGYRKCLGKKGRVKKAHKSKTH

[3] = target: T2, UDP-glucuronosyltransferase 1A8 (Homo sapiens, UniProt Q9HAW9); assay: Drug metabolism assessed as human recombinant UGT1A8-mediated compound formation treated with AMG 853 at 10 uM after 30 mins by LC-MS/MS analysis; format: ADME; conditions: recombinant enzyme, 0.5 h
T2 sequence (Q9HAW9 whole entry): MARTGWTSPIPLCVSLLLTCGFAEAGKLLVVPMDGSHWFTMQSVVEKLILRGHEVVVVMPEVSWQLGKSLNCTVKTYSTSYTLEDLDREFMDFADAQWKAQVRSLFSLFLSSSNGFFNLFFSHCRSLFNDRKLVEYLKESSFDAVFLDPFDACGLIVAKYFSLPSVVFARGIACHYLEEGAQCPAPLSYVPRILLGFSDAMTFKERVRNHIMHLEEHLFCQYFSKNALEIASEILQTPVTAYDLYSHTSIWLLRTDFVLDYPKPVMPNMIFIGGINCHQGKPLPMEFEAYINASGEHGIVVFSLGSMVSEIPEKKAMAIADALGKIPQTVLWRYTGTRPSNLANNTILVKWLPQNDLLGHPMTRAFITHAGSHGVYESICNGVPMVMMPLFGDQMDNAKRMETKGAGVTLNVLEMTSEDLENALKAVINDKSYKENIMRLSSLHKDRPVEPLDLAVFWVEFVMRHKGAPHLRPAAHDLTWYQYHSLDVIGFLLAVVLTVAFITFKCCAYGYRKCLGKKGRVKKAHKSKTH

[4] = target: T3, UDP-glucuronosyltransferase 1A3 (Homo sapiens, UniProt P35503); assay: Drug metabolism assessed as human recombinant UGT1A3-mediated compound formation treated with AMG 853 after 45 mins by LC-MS/MS analysis in presence of UDPGA; format: ADME; conditions: recombinant enzyme, 0.75 h
T3 sequence (P35503 whole entry): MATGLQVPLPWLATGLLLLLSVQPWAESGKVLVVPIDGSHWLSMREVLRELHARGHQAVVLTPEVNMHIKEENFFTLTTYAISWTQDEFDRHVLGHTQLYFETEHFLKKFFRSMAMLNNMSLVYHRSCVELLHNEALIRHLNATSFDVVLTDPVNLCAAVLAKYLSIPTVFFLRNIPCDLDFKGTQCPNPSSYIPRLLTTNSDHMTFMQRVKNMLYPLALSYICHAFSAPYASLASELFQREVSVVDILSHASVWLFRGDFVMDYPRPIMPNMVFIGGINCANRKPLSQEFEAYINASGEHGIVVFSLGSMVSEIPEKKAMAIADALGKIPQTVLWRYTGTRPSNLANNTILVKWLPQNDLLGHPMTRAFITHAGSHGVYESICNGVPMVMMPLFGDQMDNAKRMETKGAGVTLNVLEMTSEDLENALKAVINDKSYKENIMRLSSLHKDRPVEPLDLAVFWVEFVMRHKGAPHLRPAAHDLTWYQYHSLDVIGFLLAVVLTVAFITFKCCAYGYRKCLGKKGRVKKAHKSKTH

[5] = Drug metabolism in human liver microsomes assessed as […]-mediated compound formation after 15 mins by LC-MS/MS analysis in presence of UDPGA; format: ADME; conditions: 0.25 h
[6] = target: T2, UDP-glucuronosyltransferase 1A8; assay: (§1) Drug metabolism assessed as human recombinant UGT1A8-mediated (2S,3S,4S,5R,6S)-6-(2-(4-(4-(tert-butylcarbamoyl)-2-(2-chloro-4-cyclopropylphenylsulfonamido)phenoxy)-5-chloro-2-fluorophenyl)acetoxy)-3,4,5-trihydroxytetrahydro-2H-pyran-2-carboxylic acid formation at 10 uM after 30 mins by LC-MS/MS analysis; format: ADME; conditions: recombinant enzyme, 0.5 h
Cytochrome P450 2C8 [7] = target: T1, Cytochrome P450 2C8; assay: Competitive inhibition of CYP2C8 in human liver microsomes assessed as paclitaxel 6-hydroxylation after 20 mins by LC-MS/MS analysis; format: ADME
Cytochrome P450 2C8 [8] = target: T1, Cytochrome P450 2C8; assay: Competitive inhibition of CYP2C8 in human liver microsomes assessed as rosiglitazone demethylation after 20 mins by LC-MS/MS analysis; format: ADME
CYP1A2 = CYP1A2 (Homo sapiens, UniProt P05177); assay: Induction of CYP1A2 in human hepatocytes using phenacetin as substrate at 0.3 to 30 uM treated every 24 hrs for 2 days measured on day 5 by LC-MS/MS analysis relative to control; format: ADME, cell-based, Hepatocyte; conditions: probe phenacetin, read-out: FC
Sequence of CYP1A2 (P05177 whole entry): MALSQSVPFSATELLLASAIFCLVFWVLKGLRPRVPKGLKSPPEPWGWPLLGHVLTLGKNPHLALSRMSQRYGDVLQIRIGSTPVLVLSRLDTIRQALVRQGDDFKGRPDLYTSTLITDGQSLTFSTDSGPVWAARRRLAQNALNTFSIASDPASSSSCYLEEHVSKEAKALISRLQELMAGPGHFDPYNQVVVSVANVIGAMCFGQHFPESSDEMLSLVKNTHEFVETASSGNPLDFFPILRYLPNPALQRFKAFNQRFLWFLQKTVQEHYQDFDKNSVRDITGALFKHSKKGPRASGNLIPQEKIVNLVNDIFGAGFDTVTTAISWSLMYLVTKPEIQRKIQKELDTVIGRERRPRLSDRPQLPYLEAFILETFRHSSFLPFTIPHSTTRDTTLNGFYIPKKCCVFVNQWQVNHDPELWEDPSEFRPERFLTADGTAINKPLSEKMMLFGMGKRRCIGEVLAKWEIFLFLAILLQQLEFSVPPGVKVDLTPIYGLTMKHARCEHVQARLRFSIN

CYP2B6 = CYP2B6 (Homo sapiens, UniProt P20813); assay: Induction of CYP2B6 in human hepatocytes using bupropion as substrate at 0.3 to 30 uM treated every 24 hrs for 2 days measured on day 5 by LC-MS/MS analysis relative to control; format: ADME, cell-based, Hepatocyte; conditions: probe bupropion, read-out: FC
Sequence of CYP2B6 (P20813 whole entry): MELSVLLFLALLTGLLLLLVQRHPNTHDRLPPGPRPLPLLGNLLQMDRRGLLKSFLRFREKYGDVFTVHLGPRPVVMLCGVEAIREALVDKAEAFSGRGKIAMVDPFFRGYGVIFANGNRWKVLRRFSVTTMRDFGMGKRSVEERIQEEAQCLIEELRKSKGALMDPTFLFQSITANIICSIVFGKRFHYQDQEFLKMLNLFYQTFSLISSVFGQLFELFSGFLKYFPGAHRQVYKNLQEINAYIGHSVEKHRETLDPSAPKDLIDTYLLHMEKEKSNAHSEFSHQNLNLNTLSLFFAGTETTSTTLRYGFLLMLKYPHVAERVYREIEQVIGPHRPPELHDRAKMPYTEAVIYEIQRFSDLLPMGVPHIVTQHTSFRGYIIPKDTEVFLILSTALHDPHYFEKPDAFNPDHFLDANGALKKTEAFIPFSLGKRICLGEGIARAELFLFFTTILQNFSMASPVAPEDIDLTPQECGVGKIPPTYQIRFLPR

CYP2C9 = CYP2C9 (Homo sapiens, UniProt P11712); assay: Induction of CYP2C9 in human hepatocytes using diclofenac as substrate at 0.3 to 30 uM treated every 24 hrs for 2 days measured on day 5 by LC-MS/MS analysis relative to control; format: ADME, cell-based, Hepatocyte; conditions: probe diclofenac, read-out: FC
Sequence of CYP2C9 (P11712 whole entry): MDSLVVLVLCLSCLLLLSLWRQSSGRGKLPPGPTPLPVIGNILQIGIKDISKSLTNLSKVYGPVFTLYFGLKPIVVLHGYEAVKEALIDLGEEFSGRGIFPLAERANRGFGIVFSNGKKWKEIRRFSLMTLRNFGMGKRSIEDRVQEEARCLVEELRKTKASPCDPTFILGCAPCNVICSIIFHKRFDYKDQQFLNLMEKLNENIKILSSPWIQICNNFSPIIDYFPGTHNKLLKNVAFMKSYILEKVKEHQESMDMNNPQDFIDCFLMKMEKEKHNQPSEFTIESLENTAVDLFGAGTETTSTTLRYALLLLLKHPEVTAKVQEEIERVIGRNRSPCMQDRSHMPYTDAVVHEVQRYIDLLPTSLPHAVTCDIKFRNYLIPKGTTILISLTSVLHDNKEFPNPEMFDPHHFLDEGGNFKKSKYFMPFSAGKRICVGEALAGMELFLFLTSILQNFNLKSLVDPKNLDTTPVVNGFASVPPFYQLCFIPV

[9] = Cmax in healthy human at 50 mg, po; format: ADME, organism-based; parameters: dose 50 mg, route oral; conditions: in vivo
[10] = Drug metabolism in human liver microsomes assessed as CYP3A5*1/*1-mediated (2S,3S,4S,5R,6S)-6-(2-(4-(4-(tert-butylcarbamoyl)-2-(2-chloro-4-cyclopropylphenylsulfonamido)phenoxy)-5-chloro-2-fluorophenyl)acetoxy)-3,4,5-trihydroxytetrahydro-2H-pyran-2-carboxylic acid formation after 15 mins by LC-MS/MS analysis in presence of UDPGA and NADPH; format: ADME; conditions: 0.25 h
Cytochrome P450 2C8 [11] = target: T1, Cytochrome P450 2C8; assay: Drug metabolism assessed as recombinant CYP2C8 (unknown origin)-mediated 2-(5-chloro-4-(2-(2-chloro-4-cyclopropylphenylsulfonamido)-4-(1-hydroxy-2-methylpropan-2-ylcarbamoyl)phenoxy)-2-fluorophenyl)acetic acid formation at 10 uM after 30 mins by LC-MS/MS analysis; format: ADME; conditions: recombinant enzyme, 0.5 h
Cytochrome P450 2C8 [12] = target: T1, Cytochrome P450 2C8; assay: Drug metabolism assessed as recombinant CYP2C8 (unknown origin)-mediated 2-(4-(4-(tert-butylcarbamoyl)-2-(2-chloro-4-(1-hydroxycyclopropyl)phenylsulfonamido)phenoxy)-5-chloro-2-fluorophenyl)acetic acid formation at 10 uM after 30 mins by LC-MS/MS analysis; format: ADME; conditions: recombinant enzyme, 0.5 h
Cytochrome P450 3A4 = Cytochrome P450 3A4 (Homo sapiens, UniProt P08684); assay: Drug metabolism assessed as recombinant CYP3A4 (unknown origin)-mediated 2-(4-(4-(tert-butylcarbamoyl)-2-(2-chloro-4-(1-hydroxycyclopropyl)phenylsulfonamido)phenoxy)-5-chloro-2-fluorophenyl)acetic acid formation at 10 uM after 30 mins by LC-MS/MS analysis; format: ADME; conditions: recombinant enzyme, 0.5 h
Sequence of Cytochrome P450 3A4 (P08684 whole entry): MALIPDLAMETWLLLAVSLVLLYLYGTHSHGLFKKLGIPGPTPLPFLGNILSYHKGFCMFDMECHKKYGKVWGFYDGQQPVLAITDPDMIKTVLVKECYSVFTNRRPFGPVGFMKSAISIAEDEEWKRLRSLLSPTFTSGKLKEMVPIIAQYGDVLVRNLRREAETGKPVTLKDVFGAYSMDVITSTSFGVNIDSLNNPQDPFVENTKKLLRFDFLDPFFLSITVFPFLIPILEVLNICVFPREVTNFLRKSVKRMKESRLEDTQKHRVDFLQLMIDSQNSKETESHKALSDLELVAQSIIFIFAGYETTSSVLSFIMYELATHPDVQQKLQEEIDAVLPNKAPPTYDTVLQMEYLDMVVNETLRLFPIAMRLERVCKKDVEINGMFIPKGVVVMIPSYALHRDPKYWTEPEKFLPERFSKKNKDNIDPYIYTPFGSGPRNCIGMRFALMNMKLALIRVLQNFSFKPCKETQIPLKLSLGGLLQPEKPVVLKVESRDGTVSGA

Liver microsome [13] = assay: Drug metabolism in human liver microsomes assessed as 2-(5-chloro-4-(2-(2-chloro-4-cyclopropylphenylsulfonamido)-4-(1-hydroxy-2-methylpropan-2-ylcarbamoyl)phenoxy)-2-fluorophenyl)acetic acid formation at 2 uM after 60 mins by LC-MS/MS analysis in presence of montelukast; format: ADME; conditions: 1 h
Liver microsome [14] = assay: Drug metabolism in human liver microsomes assessed as 2-(4-(4-(tert-butylcarbamoyl)-2-(2-chloro-4-(1-hydroxycyclopropyl)phenylsulfonamido)phenoxy)-5-chloro-2-fluorophenyl)acetic acid formation at 2 uM after 60 mins by LC-MS/MS analysis in presence of montelukast; format: ADME; conditions: 1 h
[15] = target: UDP-glucuronosyltransferase 1A10 (Homo sapiens, UniProt Q9HAW8); assay: as §1, with “UGT1A10-mediated” for “UGT1A8-mediated”; format: ADME; conditions: recombinant enzyme, 0.5 h
Sequence of UDP-glucuronosyltransferase 1A10 (Q9HAW8 whole entry): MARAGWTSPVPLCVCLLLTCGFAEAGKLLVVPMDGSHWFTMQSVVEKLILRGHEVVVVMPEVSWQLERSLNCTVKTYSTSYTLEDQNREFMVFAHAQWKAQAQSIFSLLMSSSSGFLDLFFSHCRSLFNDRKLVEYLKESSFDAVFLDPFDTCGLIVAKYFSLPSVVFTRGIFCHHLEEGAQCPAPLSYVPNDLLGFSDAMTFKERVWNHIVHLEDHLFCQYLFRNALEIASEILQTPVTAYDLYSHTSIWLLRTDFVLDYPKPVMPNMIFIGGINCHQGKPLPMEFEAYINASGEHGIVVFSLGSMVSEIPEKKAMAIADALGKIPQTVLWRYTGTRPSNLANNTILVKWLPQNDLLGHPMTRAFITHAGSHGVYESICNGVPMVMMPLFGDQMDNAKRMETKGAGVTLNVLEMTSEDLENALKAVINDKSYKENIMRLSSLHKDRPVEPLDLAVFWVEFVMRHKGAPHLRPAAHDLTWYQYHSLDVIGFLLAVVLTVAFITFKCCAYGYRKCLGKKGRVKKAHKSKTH

CC(C)(C)NC(=O)c1ccc(Oc2cc(F)c(CC(=O)O[C@@H]3O[C@H](C(=O)O)[C@@H](O)[C@H](O)[C@H]3O)cc2Cl)c(NS(=O)(=O)c2ccc(C3CC3)cc2Cl)c1
Ki (Cytochrome P450 2C8 [1]): 6.9 µM | Drug metabolism [2]: metabolite_detected | Drug metabolism [3]: metabolite_detected | S50 [4]: 379.2 µM | Vmax [4]: 39.1 pmol/min/mg | Drug metabolism [5]: metabolite_detected

CC(C)(C)NC(=O)c1ccc(Oc2cc(F)c(CC(=O)O)cc2Cl)c(NS(=O)(=O)c2ccc(C3CC3)cc2Cl)c1 [VIDUPIPRANT]
Drug metabolism [6]: metabolite_detected | Ki (Cytochrome P450 2C8 [7]): 1.1 µM | Ki (Cytochrome P450 2C8 [8]): 6 µM | fold induction at 48 h, up to 30 µM (CYP1A2): 1.4 | fold induction at 48 h, up to 30 µM (CYP2B6): 1.4 | fold induction at 48 h, up to 30 µM (CYP2C9): 1.4 | Cmax [9]: 227 ng/mL | Drug metabolism [10]: metabolite_not_detected | Drug metabolism (Cytochrome P450 2C8 [11]): metabolite_detected | Drug metabolism (Cytochrome P450 2C8 [12]): metabolite_detected | Drug metabolism (Cytochrome P450 3A4): metabolite_detected | Drug metabolism (Liver microsome [13]): metabolite_not_detected | Drug metabolism (Liver microsome [14]): metabolite_not_detected | Drug metabolism [15]: metabolite_not_detected
